Source: US10874669B2 (WAYNE STATE UNIVERSITY, priority 2018, dated 2020)
“Also recorded” adds a separate entry of the source.

Experiments:
[1] = target: α-syn (Homo sapiens (Human), UniProt P37840); conditions: previously shown; cited from earlier work
[2] = test system: PC12 cells; conditions: previously shown; cited from earlier work
[3] = target: human DA D2 receptors (Homo sapiens (Human), UniProt P14416); assay: [35S]GTPγS binding stimulation, human D2 receptors in CHO cells; format: biochemical
Sequence of human DA D2 receptors (P14416 whole entry): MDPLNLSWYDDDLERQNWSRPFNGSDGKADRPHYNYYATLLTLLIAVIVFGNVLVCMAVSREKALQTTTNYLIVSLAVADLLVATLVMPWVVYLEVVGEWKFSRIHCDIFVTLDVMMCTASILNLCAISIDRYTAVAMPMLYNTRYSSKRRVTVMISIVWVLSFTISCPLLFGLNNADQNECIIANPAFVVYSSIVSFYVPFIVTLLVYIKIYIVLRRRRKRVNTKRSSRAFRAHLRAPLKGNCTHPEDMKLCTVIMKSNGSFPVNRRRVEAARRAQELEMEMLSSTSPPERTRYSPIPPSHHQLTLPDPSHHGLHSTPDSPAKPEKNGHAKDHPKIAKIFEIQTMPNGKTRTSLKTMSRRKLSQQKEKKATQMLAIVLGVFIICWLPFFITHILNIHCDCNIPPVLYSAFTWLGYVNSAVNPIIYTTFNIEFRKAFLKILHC

[4] = target: cloned rat D3 receptors (Rattus norvegicus (Rat), UniProt P19020); assay: [3H]spiroperidol competition binding, rat D3 receptors in HEK-293 cells; conditions: rat D3 in HEK-293 cells; values of Table 3
Sequence of cloned rat D3 receptors (P19020 whole entry): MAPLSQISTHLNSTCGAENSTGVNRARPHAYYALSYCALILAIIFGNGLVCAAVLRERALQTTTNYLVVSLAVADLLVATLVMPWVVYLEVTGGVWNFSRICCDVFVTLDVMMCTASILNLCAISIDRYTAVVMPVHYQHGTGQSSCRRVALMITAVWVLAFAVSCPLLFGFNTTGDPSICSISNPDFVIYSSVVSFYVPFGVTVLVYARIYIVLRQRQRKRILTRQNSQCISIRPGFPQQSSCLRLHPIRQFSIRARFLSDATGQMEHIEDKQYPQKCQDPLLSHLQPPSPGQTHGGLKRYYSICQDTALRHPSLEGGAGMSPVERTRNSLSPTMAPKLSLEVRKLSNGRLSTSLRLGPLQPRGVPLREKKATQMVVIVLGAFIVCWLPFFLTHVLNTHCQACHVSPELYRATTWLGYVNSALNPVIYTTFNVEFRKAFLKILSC
Protocol: A well established radioligand competition assay was carried out to evaluate binding affinity of the test compounds and were compared with that of the reference agent (S)-5-OH-DPAT (Table 3). Binding affinity to rat DA D2 and D3 receptors expressed in HEK-293 cells was determined as described by us previously. […] This indicated highest tolerance of the 4-substituted carbazole derivative for interaction with the D2 and D3 receptors.
(§1) All these procedures were described by us previously.

[5] = test system: PC12 cells; assay: DCFDA fluorescence assay of intracellular ROS induced by 6-OHDA; format: cell-based, rat; conditions: 20 μM, 24 h pretreatment, then 75 μM 6-OHDA 1 h
Protocol: Experimental detection of reactive oxygen species (ROS) produced by 6-OHDA was carried out by DCFDA assay. 6-OHDA, a well known neurotoxin, produces oxidative stress similar to what is observed in PD and the mechanism of neurotoxicity of 6-OHDA takes place via its auto-oxidation and subsequent generation of hydrogen peroxide. DCFDA is a non-fluorogenic dye but in the presence of ROS, it is oxidized to produce DCF which produces florescence. We have previously shown that 6-OHDA causes cell death in a dose-dependent manner. We chose 75 μM 6-OHDA as we have shown that this dose induces 40-50% cell death. […] However, the test compounds could dose dependently decrease the production of ROS induced by 6-OHDA (75 μM) in PC12 cells. In this regard, highest dose of all the three compounds was the most efficacious in producing significant antioxidant effect.
(§2) PC12 cells (ATCC CRL1721.1, Manassas, Va., USA), a rat adrenal pheochromocytoma cell line, were cultured in T-75 flasks (Greiner Bio One, Frickenhausen, Germany) and maintained in RPMI 1640 medium supplemented with 10% heat inactivated horse serum, 5% fetal bovine sérum, 100 U/ml penicillin, and 100 μg/mL streptomycin at 37° C. in 95% air/5% CO2. […]
PC12 cells were plated at 30,000 cells/well density in 100 μL media in 96-well black plates and incubated at 37° C. under 5% CO2 atmosphere for 24 h. […] After incubation for 1 h, the fluorescence was measured using spectrophotometer fluorescence generated microplate reader (Biotek Epoch, Winooski, Vt., USA) at excitation 497 nm and emission at 527 nm. […] The specific fluorescence emission was calculated after subtraction of the DCFDA untreated control cells from the DCFDA treated cells for both the background and 1 h treatment conditions. This was followed by the division of the 1 h treatment data by the background activity which was determined from vials before treatment with 6-OHDA, to derive the final data point.

[6] = target: cloned rat D2L receptors (Rattus norvegicus (Rat), UniProt P61169); assay: [3H]spiroperidol competition binding, rat D2L receptors in HEK-293 cells; conditions: rat D2 in HEK-293 cells; values of Table 3
Sequence of cloned rat D2L receptors (P61169 whole entry): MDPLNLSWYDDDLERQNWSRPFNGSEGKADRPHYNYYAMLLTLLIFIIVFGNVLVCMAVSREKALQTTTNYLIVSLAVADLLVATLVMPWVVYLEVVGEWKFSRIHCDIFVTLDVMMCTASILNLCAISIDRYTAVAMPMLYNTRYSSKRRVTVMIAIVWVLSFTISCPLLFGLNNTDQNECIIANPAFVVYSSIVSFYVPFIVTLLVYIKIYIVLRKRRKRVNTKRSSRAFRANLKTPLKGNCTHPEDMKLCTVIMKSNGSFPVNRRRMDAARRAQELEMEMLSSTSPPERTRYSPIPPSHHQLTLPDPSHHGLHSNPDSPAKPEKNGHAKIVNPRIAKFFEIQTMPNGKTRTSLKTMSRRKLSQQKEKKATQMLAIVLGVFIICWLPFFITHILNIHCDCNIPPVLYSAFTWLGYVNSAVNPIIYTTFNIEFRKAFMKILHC
Source text: as §1

[7] = test system: PC12 cells; assay: MTT cell viability, compounds alone; format: cell-based, rat; conditions: 0.01-30 μM, compared to untreated controls
Protocol: (§3) To investigate the neuroprotection property of the selected target molecules (−)-91b, (−)-95a and (−)-95c against 6-OHDA-induced cytotoxicity, we used dopaminergic rat adrenal Pheochromocytoma PC12 cells. As reported above, treatment of PC12 cells with 6-OHDA at 75 μM for 24 h produced ˜50% loss in cells viability and this concentration was used in subsequent experiments. […] However, (−)-95a produced some incremental toxicity starting at 20 μM dose (FIG. 4B). The potential neuroprotective effects of (−)-91b, (−)-95a and (−)-95c against 6-OHDA-induced toxicity were evaluated next. […] At those concentration both drugs increased cell survival by ˜20% compared to 6-OHDA (75 μM) treated alone (FIGS. 4D and 4F), indicating neuroprotective effect of these drugs. […] This could be due to the fact that the compound by itself produced toxicity to the cells at doses ≥20 μM and the presence of 6-OHDA enhanced the toxicity (FIG. 4B).
as §2, with “serum,” for “sérum,”, “CO2. Stock solutions of (−)-91b, (−)-95a, (−)-95c, and 6-hydroxydopamine (6-OHDA) were prepared in dimethylsulfoxide (DMSO) and aliquots were stored at −20° C. and −80° C., respectively.” for “CO2.”
PC12 cells were plated at 17000 cells/well density in 100 μL of media in 96-well plates and incubated at 37° C. under 5% CO2 atmosphere for 24 h. […] The absorbance was measured on a microplate reader (Biotek Epoch, Winooski, Vt., USA) at 570 nm with background correction performed at 690 nm. Data from at least three experiments were analyzed using GraphPad software (version 6, San Diego, Calif., USA). Cell viability was defined as […] compared to untreated controls.

[8] = test system: PC12 cells; assay: MTT neuroprotection against 6-OHDA-induced toxicity; format: cell-based, rat
Protocol: as §3
PC12 cells (ATCC CRL1721.1, Manassas, Va., USA), a rat adrenal pheochromocytoma cell line, were cultured in T-75 flasks (Greiner Bio One, Frickenhausen, Germany) and maintained in RPMI 1640 medium supplemented with 10% heat inactivated horse serum, 5% fetal bovine serum, 100 U/ml penicillin, and 100 μg/mL streptomycin at 37° C. in 95% air/5% CO2. Stock solutions of (−)-91b, (−)-95a, (−)-95c, and 6-hydroxydopamine (6-OHDA) were prepared in dimethylsulfoxide (DMSO) and aliquots were stored at −20° C. and −80° C., respectively. For all experiments assessing neuroprotective effects of the test compounds, PC12 cells were pretreated with indicated concentrations of (−)-91b, (−)-95a and (−)-95c for 24 h and then treated with 75 μM 6-OHDA for another 24 h. The control cells were treated with above media containing 0.01% DMSO only.
PC12 cells were plated at 17000 cells/well density in 100 μL of media in 96-well plates and incubated at 37° C. under 5% CO2 atmosphere for 24 h. Cells were treated with varying concentrations of the test compounds to determine their direct effect on cell viability. Neuroprotection experiments were conducted by treating cells for 24 h with varying concentrations of (−)-91b, (−)-95a and (−)-95c. Then the drug containing media was replaced with fresh culture media followed by treatment with 75 μM of 6-OHDA alone for an additional 24 h under the same condition. After incubation for 24 h, 5 mg/mL MTT solution (prepared in Dulbecco's phosphate-buffered saline) was added to the cells (to a final concentration of 0.5 mg/mL) and the plates were further incubated at 37° C. in 95% air/5% CO2 atmosphere for 3-4 h to produce dark-blue formazan crystals. Afterward, the plates were centrifuged at 450 g for 10 min and the supernatants were carefully removed. Formazan crystals were dissolved by adding 100 μL of methanol:DMSO (1:1) mixture to each well and shaking gently at 400 rpm for 30 min at room temperature on a Thermomix R shaker (Eppendorf, Hamburg, Germany). The absorbance was measured on a microplate reader (Biotek Epoch, Winooski, Vt., USA) at 570 nm with background correction performed at 690 nm. Data from at least three experiments were analyzed using GraphPad software (version 6, San Diego, Calif., USA). Cell viability was defined as […] compared to untreated controls.

[9] = target: human DA D3 receptors (Homo sapiens (Human), UniProt P35462); assay: [35S]GTPγS binding stimulation, human D3 receptors in CHO cells; format: biochemical
Sequence of human DA D3 receptors (P35462 whole entry): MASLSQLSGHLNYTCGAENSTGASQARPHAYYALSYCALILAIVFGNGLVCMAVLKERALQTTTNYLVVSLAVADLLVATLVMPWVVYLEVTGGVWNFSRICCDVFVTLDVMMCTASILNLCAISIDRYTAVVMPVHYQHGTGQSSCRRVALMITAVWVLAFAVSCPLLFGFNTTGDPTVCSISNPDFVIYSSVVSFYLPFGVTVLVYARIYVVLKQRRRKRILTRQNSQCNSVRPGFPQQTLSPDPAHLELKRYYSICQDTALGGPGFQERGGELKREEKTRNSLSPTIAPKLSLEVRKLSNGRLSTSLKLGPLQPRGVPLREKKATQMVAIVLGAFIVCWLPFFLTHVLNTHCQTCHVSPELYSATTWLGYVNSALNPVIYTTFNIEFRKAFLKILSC

[10] = test system: reserpine-induced hypolocomotion in rats; assay: Reversal of reserpine-induced hypolocomotion in rats; conditions: 10 μMol/kg, ip
Protocol: In this model depletion of catecholamines by reserpine results in catalepsy in rats.
The following commercially available drug was used in the experiment: reserpine hydrochloride (Alfa Aesar). […] The compounds for this study were administered in a volume of 0.1-0.2 mL for subcutaneous administration and 0.5-0.7 ml for interaperitoneal administration into each rat.
In rodent studies, animals were male and female Sprague-Dawley rats from Harlan (Indianapolis, Ind.) weighing 220-225 g unless otherwise specified. Animals were maintained in sawdust-lined cages in a temperature and humidity controlled environment at 22±1° C. and 60±5% humidity, respectively. A 12 h light/dark cycle was maintained, with lights on from 6:00 a.m. to 6:00 p.m. They were group-housed with unrestricted access to food and water. All experiments were performed during the light component.
Reserpine (5.0 mg/kg, sc) was administered 18 h before the injection of drug or vehicle. The rats were placed individually in the chambers for 1 h for acclimatization before administration of the test drugs or vehicle. Immediately after administration of drug or vehicle, animals were individually placed in Opto-Varimex 4 animal activity monitor chamber (Columbus Instruments, Ohio, USA) to start measuring locomotor activity. Locomotion was monitored for 6 h. […] The data were presented as horizontal activity (HACTV). […] The data were analyzed by one-way analysis of variance (ANOVA) followed by Dunnett's post hoc test.

[11] = compared with maximum stimulation by full agonist DA

Row | EC50 ([3]; CHO cells, read-out: EC50 (GTPγS), D2) | Emax [3, 11] | Ki [4] | Ki [6] | EC50 ([9]; CHO cells, read-out: EC50 (GTPγS), D3) | Emax [9, 11] | Structure (SMILES) | decreasing ThT fluorescence, compared to hybrid agonist [1] | reducing toxicities of α-syn aggregates, compared to hybrid agonist [2] | reduction in ROS [5] | cell viability, compound alone [7] | concentration of greatest protective effect ([8]; 24 h pretreatment, then 75 μM 6-OHDA 24 h) | increase in cell survival compared to 6-OHDA treated alone ([8]; at concentration of greatest protective effect, 75 μM 6-OHDA) | duration of locomotor activation ([10]; locomotion monitored for 6 h) | reversal of reserpine-induced akinesia / hypolocomotion (horizontal activity) ([10]; reserpine 5 mg/kg sc, 18 h pretreatment, rats)
1 | – | – | – | – | – | – | CCCN(CCC)C1CCc2c(O)cccc2C1 (stereo not shown) [Compound 5-OHDPAT, 5-hydroxy-2-(dipropylamino)tetralin] | far less effective | far less effective | – | – | – | – | – | –
2 | 2.29 nM | 74 to 88% | 0.36 nM | 16.9 nM | 0.22 nM | 74 to 88% | CCCN(CCN1CCN(c2cccc3[nH]c4ccccc4c23)CC1)[C@H]1CCc2c(O)cccc2C1 [Compound (−)-95c, (S)-6-((2-(4-(9H-carbazol-4-yl)piperazin-1-yl)ethyl)(propyl)amino)-5,6,7,8-tetra-hydronaphthalen-1-ol] | – | – | 36% | no cells loss | 20 µM | ~20% | significant enhancement of locomotion for the duration of the study of 6 h | significantly reversed akinesia; also recorded: significantly different
3 | – | – | – | – | – | – | CCCN[C@H]1CCc2nc(N)sc2C1 [Pramipexole] | far less effective | far less effective | – | – | – | – | – | –
